Laboratory results as given in EP0469010B1, “COSMETIC COMPOSITION” (priority 1989, dated 1990).
Counter-ions that a name gives are not always drawn.

Assays:
Assay type in all cases: in vivo, human
Ludwig type alopecia = experiment: Clinical pilot study of topical sodium sucrose sulfate in alopecia: Ludwig type alopecia in females; conditions: 5 females aged 20-49 years, treated 6-8 months, 3% solution topically
Method: (§1) The test preparation was a 3% solution of Na-sucrose sulfate in a vehicle of 50% water/25% ethanol/25% propylene glycol (w/w), dispensed in 35 ml bottles with a sponge for topical administration on the scalp. The test preparation was applied morning and evening on the scalp, preferably on areas of partial or total alopecia. In average the patients have been using one bottle per month.
(§2) All patients were recruited by one dermatologist, and the effect of treatment was evaluated clinically by the same investigator, at monthly clinic visits.
(§3) The clinical effect was classified as very good in cases of definite cosmetic benefit, as good in cases of significant regrowth of new hair, but not to an extend that is cosmetically apparent at distance, and as no effect in cases of no or only marginal regrowth of hair.
5 Females aged from 20-49 years with Ludwig type alopecia were treated with the test drug for 6-8 months.

[1] = tested on: subtotal or total alopecia, with underlying atopic dermatitis; experiment: Clinical pilot study of topical sodium sucrose sulfate in alopecia: subtotal or total alopecia; conditions: 3% solution topically
Method: (§4) During a 11 month period (April 1989 to March 1990), a total of 50 patients participated in a pilot study, evaluating the effect of the sodium salt of sucrose sulfate administered topically for the treatment of alopecia.
as §1, §2, §3
2 Patients suffered from subtotal or total alopecia, with underlying atopic dermatitis.

[2] = tested on: hair loss secondary to anti-cancer treatment; experiment: Pilot study of sodium sucrose sulfate, prophylactic and therapeutic, in hair loss secondary to anti-cancer treatment
Source text: The test preparation containing sodium sucrose sulfate from Example 11 was used both prophylactically and therapeutically in a few patients undergoing radiation and/or cytostatic anti-cancer treatment. One person started the treatment with the test preparation immediately after the anti-cancer treatment was instituted, applying the test preparation twice daily on eyebrows and eyelashes on the right side, and the left side served as untreated control. The treatment lasted four weeks. […] Another four females - also on anti-cancer treatment - used the test preparation twice daily, topically on the scalp after the hair was lost.

Male androgenic alopecia [3] = experiment: Clinical pilot study of topical sodium sucrose sulfate in alopecia: male androgenic alopecia; parameters: key to clinical effect: very good in cases of definite cosmetic benefit; good in cases of significant regrowth of new hair, but not to an extend that is cosmetically apparent at distance; no effect in cases of no or only marginal regrowth of hair; conditions: for clinical effect: 4 patients; for Clinical effect Good (number of patients) / Clinical effect No effect (number of patients) / Clinical effect Very good (number of patients): 3% solution topically morning and evening, about 3 to 9 months
Method: During a 11 month period (April 1989 to March 1990), a total of 50 patients participated in a pilot study, evaluating the effect of the sodium salt of sucrose sulfate administered topically for the treatment of alopecia. The test preparation was a 3% solution of Na-sucrose sulfate in a vehicle of 50% water/25% ethanol/25% propylene glycol (w/w), dispensed in 35 ml bottles with a sponge for topical administration on the scalp. The test preparation was applied morning and evening on the scalp, preferably on areas of partial or total alopecia. In average the patients have been using one bottle per month. All patients were recruited by one dermatologist, and the effect of treatment was evaluated clinically by the same investigator, at monthly clinic visits. The clinical effect was classified as very good in cases of definite cosmetic benefit, as good in cases of significant regrowth of new hair, but not to an extend that is cosmetically apparent at distance, and as no effect in cases of no or only marginal regrowth of hair. Male androgenic alopecia was the clinical diagnosis in 35 patients, their age ranging from 17 years to 50 years. Period of treatment was about 3 months in 15 case, about 6 months in 10 cases, and about 9 months in 10 cases.

[4] = tested on: very bad hair condition and underlying psoriasis; experiment: Clinical pilot study of topical sodium sucrose sulfate in alopecia: bad hair condition with psoriasis; parameters: key: very good in cases of definite cosmetic benefit; good in cases of significant regrowth of new hair, but not to an extend that is cosmetically apparent at distance; no effect in cases of no or only marginal regrowth of hair; conditions: one person, treated for 9 months, 3% solution topically
Method: as §4, §1, §2, §3
One person with very bad hair condition and underlying psoriasis was treated for 9 months and a very good effect on the test drug was obtained.

underlying discoid LE = experiment: Clinical pilot study of topical sodium sucrose sulfate in alopecia: underlying discoid LE; parameters: key: very good in cases of definite cosmetic benefit; good in cases of significant regrowth of new hair, but not to an extend that is cosmetically apparent at distance; no effect in cases of no or only marginal regrowth of hair; conditions: 2 female patients, treated 2 and 4 months; regrowth except for the very center of the lesion
Method: as §4, §1, §2, §3
2 female patients with underlying discoid LE were successfully treated for 2 and 4 months, respectively, with a very good effect comprising regrowth of hair except for the very center of the lesion.

alopecia areata = experiment: Clinical pilot study of topical sodium sucrose sulfate in alopecia: alopecia areata; parameters: key: very good in cases of definite cosmetic benefit; good in cases of significant regrowth of new hair, but not to an extend that is cosmetically apparent at distance; no effect in cases of no or only marginal regrowth of hair; conditions: 5 female patients aged 39 to 46 years, treated 2 to 9 months, 3% solution topically
Method: as §4, §1, §2, §3
5 Female patients with alopecia areata aged from 39 years to 46 years were treated for periods from 2 to 9 months, the treatment showing a very good effect.

[5] = tested on: common male-pattern baldness; experiment: Treatment with sucralfate cream of common male-pattern baldness (single case, Example 14); conditions: 10% w/w sucralfate preparation, two daily topical applications, person, after 3-4 weeks
Source text: At the beginning, a "plume" appeared in the area, and after a few days the "plume" began turning into real hairs and 8 days after, there were dozens of real hairs which were indistinguishable from other hairs of the scalp, apart from being shorter and all coloured in the original colour of the hair, in contrast to the existing hair, which was partially greyed.

total alopecia = experiment: Clinical pilot study of topical micronized sucralfate in alopecia: total alopecia; conditions: one patient, total alopecia for 20 years, 5% micronized sucralfate twice daily for 6 weeks
Source text: (§5) A composition containing micronized sucralfate (<5 µm, Giulini Chemie, Germany) 5%, ethanol 25%, propylene glycol 25%, and distilled water 45%, was used in two daily applications on the scalp, the composition being dispensed in a bottle with sponge applicator. The average consumption of the test preparation in individual patients was about one bottle per month. […] The effects were lasting after stopping the treatment for about 4 months.

Male androgenic alopecia [6] = experiment: Clinical pilot study of topical micronized sucralfate in alopecia: male androgenic alopecia
Source text: as §5

[7] = age group 17-25 years, 20 patients
[8] = age group 25-40 years, 10 patients
[9] = age group >40 years, 5 patients

O=S(=O)(O)OC[C@H]1O[C@@](COS(=O)(=O)O)(O[C@H]2O[C@H](COS(=O)(=O)O)[C@@H](OS(=O)(=O)O)[C@H](OS(=O)(=O)O)[C@H]2OS(=O)(=O)O)[C@@H](OS(=O)(=O)O)[C@@H]1OS(=O)(=O)O [sodium sucrose sulfate, Sodium sucrose octasulfate]
number of patients with good effect (Ludwig type alopecia): 3 patients | number of patients with only a marginal effect (Ludwig type alopecia): 2 patients | effect of treatment ([1]; person with 2-3 years of alopecia, treatment for 8 months): only little effect | regrowth of hair ([1]; person, bald for 20 years, treatment for 10 months): complete regrowth of hair | regrowth of hair after loss ([2]; four females on anti-cancer treatment, twice daily topically on the scalp after the hair was lost): much faster regrowth of hair than normally | prevention of loss of eyebrows and eyelashes ([2]; one on anti-cancer treatment, twice daily on right side for four weeks, left side untreated control (lost)): eyebrows and eyelashes remained | clinical effect (Male androgenic alopecia [3]; age group 17-25, previously failed on minoxidil, 3% solution topically): no effect | clinical effect (Male androgenic alopecia [3]; age group 25-40, previously failed on minoxidil, 3% solution topically): good | Clinical effect Good (number of patients) (Male androgenic alopecia [3]; [7]): 8 | Clinical effect No effect (number of patients) (Male androgenic alopecia [3]; [7]): 4 | Clinical effect Very good (number of patients) (Male androgenic alopecia [3]; [7]): 8 | Clinical effect Good (number of patients) (Male androgenic alopecia [3]; [8]): 2 | Clinical effect No effect (number of patients) (Male androgenic alopecia [3]; [8]): 2 | Clinical effect Very good (number of patients) (Male androgenic alopecia [3]; [8]): 4 | Clinical effect Good (number of patients) (Male androgenic alopecia [3]; [9]): 2 | Clinical effect No effect (number of patients) (Male androgenic alopecia [3]; [9]): 2 | time of treatment until hair-growing effect apparent (Male androgenic alopecia [3]; patients responding to the treatment, whole pilot study, typical value): ~1 month | effect in comparison to topically applied minoxidil (Regain®) (Male androgenic alopecia [3]; whole pilot study, 3% solution topically): markedly better effect | clinical effect [4]: very good | clinical effect (underlying discoid LE): very good | clinical effect (alopecia areata): very good

sucrose octakis(hydrogen sulfate) aluminium complex [sucralfate]
appearance of hair [5]: appearance of hair in the otherwise bald lateral-frontal areas | regrowth of hair (total alopecia): dense regrowth of fine short terminal hairs all over the scalp | regrowth of hair (Male androgenic alopecia [6]; one person, Hamilton grade 3, 5% micronized sucralfate twice daily for two months): dense regrowth of small terminal hairs | duration of effects after stopping the treatment (Male androgenic alopecia [6]; one person, Hamilton grade 3, after two months of treatment): about 4 months | regrowth of hair (Male androgenic alopecia [6]; six male patients aged 30 to 48 years, Hamilton grade 3 and 4, 5% micronized sucralfate twice daily for 3 to 6 months, all six cases): definite regrowth of terminal hairs | time of treatment until effect seen (Male androgenic alopecia [6]; six male patients, Hamilton grade 3 and 4, typical value): 6-8 weeks
